“Also recorded” adds a separate entry of the source.
Columns and labels:
[1] = target: T1, α-syn fibrils (Homo sapiens, UniProt P37840); assay: α-Syn fibril/ligand binding assay (fluorescence saturation binding); conditions: for selectivity for α-syn versus Aβ fibrils (comparison of Kd values): Kd Aβ fibrils vs Kd α-syn fibrils; for Kd: synthetic α-syn fibrils 2.5 μM, PBS, 37° C., 1 h
T1 construct: purchased R-peptide S-1001-2
Procedure: To this suspension was added 0.2 mL phosphate buffer (10 mM, pH 7.5). The soluble materials were removed by spinning for 5 min in a centrifuge (18000 g/s). The process was repeated four times. After the fourth time, the peptide was transferred into a microtube (200 μl), and 2.5 μl of 300 mM MnCl (made in water) was added. […] The fibrils formed were spun down at 21,000 g/s for 6 min. The supernatant was discarded, and the fibril pellet was resuspended in 200 μl PBS buffer (pH=7.4).
The mixture was incubated at 37° C. for 1 h with shaking. The mixture was spun down at 21,000 g/s for 15 min to separate the fibrils. The precipitate was washed twice with Tris-HCl and resuspended in 200 μL buffer. […] All data points were performed in triplicate. The Kd and the maximal number of binding sites (Bmax) values were determined by fitting the data to the equation Y=Bmax×X/(X+Kd) by nonlinear regression using MATLAB software (R2019B).

[2] = target: T2, α-syn pathology (Lewy pathology) in human PD brain tissue (Homo sapiens, UniProt P37840); assay: Fluorescent staining of post-mortem human PD brain tissue sections; conditions: frontal cortex sections, co-stained with Syn211 or Syn303, confocal microscopy
T2 construct: tissue NIH Neurobiobank; host or cells: post-mortem human PD brain sections (frontal cortex, pons)
Procedure: Sections from the pons and frontal-cortex of the PD brain were permeabilized and treated sequentially with antibody [Anti-alpha-Synuclein (aa 121-125) Antibody, clone Syn 211] and 1 μM solution of each compound and visualized by confocal microscopy. […] Column II depicts ligand fluorescence. Column III depicts fluorescence from the antibody. Column IV is a composite image created by merging the first three images. […] The pattern and labeling intensity appear similar in the antibody channel. […] In up close Z-stacked images of the treated tissue (Row C), the pathology appears to surround dark holes (arrows) in the ligand and antibody channels.
To further characterize the sites labeled by the ligands and antibody Syn211 tissue staining experiments, contiguous cortical sections were treated with compound 8 and then either Syn211 or Syn303. As expected, the sections treated with compound 8 and Syn211 (FIG. 17, first row) show identical ligand and antibody labeling patterns that colocalize in the composite image. Both the ligand and antibody appear to label all forms of pathology present on the tissue. […]
Midbrain tissue (Frontal cortex 5469) was embedded with Tissue-Tek O.C.T. Compound and kept in liquid nitrogen for 30 min. […] The tissue was imaged with Lecia DMi8 Motorized Fluorescence Microscope using standard excitation/emission filters for Alexa Fluor 488 or Alexa Fluor 647.

[3] = test system: β-amyloid plaques in human AD brain tissue; assay: Fluorescent staining of post-mortem human AD brain tissue sections; conditions: cortical sections, co-stained with 4G8 antibody
Excerpt: To assess the observed selectivity in α-syn versus Aβ fibril binding on aggregates in human tissue, equimolar concentrations of ligands 8, 32, and 37 were further evaluated on PD tissue as described above, alongside cortical sections from neuropathologically verified post-mortem brain samples of AD patients. […] A similar labeling pattern and efficiency are observed in the antibody channel (column III). […] The antibody, anti-β-Amyloid, 17-24 Antibody (4G8), highlights both dense core and diffuse Aβ pathology (column III).
Midbrain tissue (Frontal cortex 5590) was embedded with Tissue-Tek O.C.T. Compound and kept in liquid nitrogen for 30 mins. The embedded tissue was sliced into 30 μm thick sections with Lecia Biosystems Cryostats under −20° C. and mounted onto Precleaned Microscope Slides. The section was washed with 1× PBST two times and then loaded into 10% formalin solution for 20 mins. The section was washed with 1× PBS three times and permeabilized with 0.1% Triton-X 100 for 10 min. The section was washed with 1× PBS two times and incubated with 2% normal Donkey serum at room temperature for 1 h. […] The tissue was imaged with Lecia DMi8 Motorized Fluorescence Microscope using standard excitation/emission filters for Alexa Fluor 488 or Alexa Fluor 647.

selectivity for α-syn versus Aβ fibrils (comparison of Kd values) [1]	Kd [1]	SMILES	labeling of Lewy pathology in PD brain sections [2]	labeling of Aβ pathology in AD brain sections [3]
14.4 fold	9.7 nM	COc1cc(/C=C/C=C2\Cc3ccccc3C2=O)ccc1O [compound 8, (E)-2-((E)-3-(4-Hydroxy-3-methoxyphenyl)allylidene)-2,3-dihydro-1H-inden-1-one]	avidly labels Lewy pathology; also recorded: labels all conformations of the pathology; also recorded: avid labeling of both large and fine deposits of the pathology	mostly dense core Aβ plaques
26 fold	18.8 nM	O=C(O)c1ccc(-c2ccc(/C=C/C=C3\Cc4ccc(O)cc4C3=O)cc2)cc1 [compound 32, 4′-((E)-3-((E)-6-Hydroxy-1-oxo-1,3-dihydro-2H-inden-2-ylidene)prop-1-en-1-yl)-[1,1′-biphenyl]-4-carboxylic acid]	avid labeling of Lewy pathology	
